Reference: publication PMC3914206

What was measured:
Format in all cases: binding
Details in all cases: Compound Concentration 10 µM
[1] = molecular target: T1, panel of 442 kinases (Homo sapiens, UniProt P10721, L576P)
T1 construct: purchased KINOMEscan
Source text: (§1) We assessed the selectivity of members of this scaffold using the KINOMEscan methodology across a near comprehensive panel of 442 kinases [[18,27]].

[2] = molecular target: T2, panel of 442 kinases (Homo sapiens, UniProt P42336, M1043I)
T2 construct: purchased KINOMEscan
T2 sequence (P42336 whole entry M1043I): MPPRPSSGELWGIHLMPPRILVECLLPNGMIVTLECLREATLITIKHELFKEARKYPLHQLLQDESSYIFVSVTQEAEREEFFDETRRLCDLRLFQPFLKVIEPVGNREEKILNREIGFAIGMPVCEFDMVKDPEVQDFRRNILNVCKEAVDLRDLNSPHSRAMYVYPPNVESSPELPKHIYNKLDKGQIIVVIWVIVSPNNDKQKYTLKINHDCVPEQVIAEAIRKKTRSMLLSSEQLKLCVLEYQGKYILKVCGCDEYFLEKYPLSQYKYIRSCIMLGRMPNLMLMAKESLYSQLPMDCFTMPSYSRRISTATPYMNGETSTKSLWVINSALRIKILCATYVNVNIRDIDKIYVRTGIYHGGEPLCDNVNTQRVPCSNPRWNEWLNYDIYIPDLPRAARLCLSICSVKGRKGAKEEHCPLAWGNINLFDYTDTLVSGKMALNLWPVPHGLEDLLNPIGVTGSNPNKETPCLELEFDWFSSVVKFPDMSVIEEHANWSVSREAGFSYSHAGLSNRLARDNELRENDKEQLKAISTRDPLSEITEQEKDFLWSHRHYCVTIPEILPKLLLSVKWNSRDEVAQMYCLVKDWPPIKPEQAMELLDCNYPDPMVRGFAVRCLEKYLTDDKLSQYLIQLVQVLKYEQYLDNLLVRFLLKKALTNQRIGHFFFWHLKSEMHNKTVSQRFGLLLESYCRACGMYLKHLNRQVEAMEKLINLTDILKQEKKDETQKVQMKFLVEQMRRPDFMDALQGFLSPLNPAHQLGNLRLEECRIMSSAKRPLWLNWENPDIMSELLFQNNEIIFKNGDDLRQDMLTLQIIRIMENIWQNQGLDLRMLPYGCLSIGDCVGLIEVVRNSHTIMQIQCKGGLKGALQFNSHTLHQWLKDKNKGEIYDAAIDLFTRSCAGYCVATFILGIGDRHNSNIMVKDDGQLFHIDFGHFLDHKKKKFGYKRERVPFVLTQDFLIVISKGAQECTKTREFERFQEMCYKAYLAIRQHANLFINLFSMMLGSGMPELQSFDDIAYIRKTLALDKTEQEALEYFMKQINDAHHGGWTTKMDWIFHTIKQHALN
Source text: as §1

[3] = molecular target: T3, panel of 442 kinases (Homo sapiens, UniProt Q12866)
T3 construct: purchased KINOMEscan
T3 sequence (Q12866 21-999): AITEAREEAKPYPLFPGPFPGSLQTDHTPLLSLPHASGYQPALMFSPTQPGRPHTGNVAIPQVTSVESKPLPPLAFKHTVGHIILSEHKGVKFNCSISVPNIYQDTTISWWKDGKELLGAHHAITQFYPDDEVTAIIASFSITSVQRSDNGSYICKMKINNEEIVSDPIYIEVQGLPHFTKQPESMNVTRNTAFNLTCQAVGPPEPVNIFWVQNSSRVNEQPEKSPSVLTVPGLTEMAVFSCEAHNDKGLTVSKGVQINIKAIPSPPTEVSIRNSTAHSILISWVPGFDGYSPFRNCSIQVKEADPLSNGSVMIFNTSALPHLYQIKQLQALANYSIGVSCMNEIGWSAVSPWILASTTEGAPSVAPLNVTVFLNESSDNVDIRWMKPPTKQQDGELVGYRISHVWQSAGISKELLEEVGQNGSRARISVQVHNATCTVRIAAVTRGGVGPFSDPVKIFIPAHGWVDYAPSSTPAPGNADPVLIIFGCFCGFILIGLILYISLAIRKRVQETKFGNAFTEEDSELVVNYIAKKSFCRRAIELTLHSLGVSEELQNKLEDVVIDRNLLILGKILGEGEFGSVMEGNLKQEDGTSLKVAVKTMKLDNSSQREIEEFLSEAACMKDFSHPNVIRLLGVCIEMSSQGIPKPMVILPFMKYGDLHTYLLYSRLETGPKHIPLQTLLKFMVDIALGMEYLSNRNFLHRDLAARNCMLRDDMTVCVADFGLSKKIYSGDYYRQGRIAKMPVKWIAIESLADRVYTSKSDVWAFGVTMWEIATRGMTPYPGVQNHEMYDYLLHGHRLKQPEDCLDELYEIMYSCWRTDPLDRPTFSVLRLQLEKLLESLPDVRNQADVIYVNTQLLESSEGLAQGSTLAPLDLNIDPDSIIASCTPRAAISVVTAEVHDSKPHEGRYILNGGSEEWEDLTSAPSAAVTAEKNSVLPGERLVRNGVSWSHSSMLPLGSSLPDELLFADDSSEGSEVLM
Source text: as §1

T1 sequence (P10721 26-976 L576P): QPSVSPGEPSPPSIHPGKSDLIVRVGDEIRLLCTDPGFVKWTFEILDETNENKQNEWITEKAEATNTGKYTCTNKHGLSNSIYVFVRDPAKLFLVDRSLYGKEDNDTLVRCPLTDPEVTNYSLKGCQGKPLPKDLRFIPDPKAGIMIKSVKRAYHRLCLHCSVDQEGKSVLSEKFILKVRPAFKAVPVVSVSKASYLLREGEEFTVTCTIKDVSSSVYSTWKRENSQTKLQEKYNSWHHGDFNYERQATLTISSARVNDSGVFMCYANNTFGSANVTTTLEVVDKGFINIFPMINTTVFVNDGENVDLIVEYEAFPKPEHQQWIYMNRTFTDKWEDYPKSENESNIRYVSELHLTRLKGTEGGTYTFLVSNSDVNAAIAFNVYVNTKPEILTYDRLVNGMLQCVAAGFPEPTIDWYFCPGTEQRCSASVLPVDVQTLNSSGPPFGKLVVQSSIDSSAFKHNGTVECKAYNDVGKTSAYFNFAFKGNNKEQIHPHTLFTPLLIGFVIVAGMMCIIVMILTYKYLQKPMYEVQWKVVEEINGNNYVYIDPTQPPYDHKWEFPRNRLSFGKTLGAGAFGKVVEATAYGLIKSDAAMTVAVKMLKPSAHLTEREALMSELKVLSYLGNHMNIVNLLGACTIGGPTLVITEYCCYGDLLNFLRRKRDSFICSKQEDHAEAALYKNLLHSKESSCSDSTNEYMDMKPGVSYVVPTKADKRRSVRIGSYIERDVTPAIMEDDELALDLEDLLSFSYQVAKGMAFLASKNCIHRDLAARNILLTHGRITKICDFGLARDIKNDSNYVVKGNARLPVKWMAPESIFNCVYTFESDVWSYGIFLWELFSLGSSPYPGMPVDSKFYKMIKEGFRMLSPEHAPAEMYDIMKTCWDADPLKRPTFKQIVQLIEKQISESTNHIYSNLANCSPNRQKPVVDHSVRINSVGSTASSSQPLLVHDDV

Structure (SMILES)	KINOMEscan: KIT(L576P) [1]	KINOMEscan: PIK3CA(M1043I) [2]	KINOMEscan: MERTK [3]
COc1cc(C(=O)N2CCC(N3CCN(C)CC3)CC2)ccc1Nc1ncc2c(n1)N(C)c1ccccc1C(=O)N2C [15 (LRRK2-IN-1)]	100	65	100
CCOc1cc(C(=O)N2CCC(N3CCN(C)CC3)CC2)ccc1Nc1ncc2c(n1)N(C1CCCC1)c1ccccc1C(=O)N2C [Compound 26]	100	92	100
COc1cc(C(=O)N2CCC(N3CCN(C)CC3)CC2)ccc1Nc1ncc2c(n1)N1CCc3cccc(c31)C(=O)N2C [Compound 24]	–	66	–
COc1cc(C(=O)N2CCC(N3CCN(C)CC3)CC2)ccc1Nc1ncc2c(n1)N(C1CCCC1)c1ccccc1C(=O)N2C [Compound 25, 11-cyclopentyl-2-((2-methoxy-4-(4-(4-methylpiperazin-1-yl)piperidine-1-carbonyl)phenyl)amino)-5-methyl-5H-benzo[e]pyrimido[5,4-b][1,4]diazepin-6(11H)-one]	93	93	100
